Some test systems named below: CCRF-CEM leukemia; DU-145 prostate; HCT-15 colon; LOX IMVI melanoma; MCF7 breast; NCI/ADR-RES ovarian; SF-295 CNS; SK-MEL-28 melanoma; SK-OV-3 ovarian; SW-620 colon.
Common to all, as to assay: NCI anticancer screen, dose series, 48 h

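How tested: cells in 96-well plates exposed to compound for 48 hours at five concentrations. Abbreviation: GI50, concentration required for 50% inhibition of growth. TGI denotes the concentration required for complete inhibition of growth.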

For `O=C1CCCCN1c1ccccc1C#C/C=C\C#Cc1ccccc1C(F)(F)F`, the GI50 with CCRF-CEM leukemia was 1.56 µM; in the assay on DU-145 prostate, 1.68 µM; in the assay with HCT-15 colon it was 1.53 µM; in the assay with LOX IMVI melanoma, 1.84 µM; in the assay on MCF7 breast, 2.5 µM; in the assay with NCI/ADR-RES ovarian, 0.946 µM. Moreover, the GI50 with SF-295 CNS is 1.11 µM; in the assay with SK-MEL-28 melanoma it was 1.09 µM; in the assay on SK-OV-3 ovarian it was greater than 50 µM; in the assay on SW-620 colon, 2.04 µM. Besides, the TGI with CCRF-CEM leukemia was 3.96 µM; with DU-145 prostate it was 8.5 µM; in the assay on HCT-15 colon it was 6.05 µM; in the assay with LOX IMVI melanoma it was 8.87 µM; in the assay on MCF7 breast, greater than 50 µM; with NCI/ADR-RES ovarian it was 2.48 µM. Also, the TGI in the assay with SF-295 CNS was 3.16 µM; in the assay with SK-MEL-28 melanoma it was 3.36 µM; in the assay on SK-OV-3 ovarian, greater than 50 µM; in the assay with SW-620 colon, 46 µM.
Turning to `CCN(Cc1ccc(F)cc1)c1cc(Cl)c(CO)c(Cl)c1`, the GI50 with CCRF-CEM leukemia was 16.8 µM; in the assay with DU-145 prostate it was 16.8 µM; in the assay on HCT-15 colon, 15.7 µM; in the assay with LOX IMVI melanoma it was 14.7 µM; in the assay with MCF7 breast, 13.7 µM; with NCI/ADR-RES ovarian, 13.7 µM. Further, the GI50 with SF-295 CNS is 10.9 µM; in the assay on SK-MEL-28 melanoma it was 17.3 µM; in the assay with SK-OV-3 ovarian, 15.2 µM; with SW-620 colon it was 13.7 µM. Further, the TGI with CCRF-CEM leukemia is 47.7 µM; in the assay on DU-145 prostate, 31.6 µM; in the assay on HCT-15 colon, 36.6 µM; in the assay with LOX IMVI melanoma, 29.3 µM; in the assay with MCF7 breast it was 28 µM; in the assay with NCI/ADR-RES ovarian it was 31.4 µM. Besides, the TGI came to 25.6 µM in the assay on SF-295 CNS, 31.5 µM with SK-MEL-28 melanoma, 28.7 µM in the assay with SK-OV-3 ovarian and 30.4 µM in the assay on SW-620 colon.
With `Cc1nnc(NC(=O)c2nc(S(=O)(=O)Cc3ccc(F)cc3)ncc2Cl)s1`, the GI50 with CCRF-CEM leukemia was 1.52 µM; in the assay with DU-145 prostate it was 9.44 µM; in the assay on HCT-15 colon, 1.84 µM; with LOX IMVI melanoma, 1.5 µM; in the assay with MCF7 breast, 3.29 µM; in the assay on NCI/ADR-RES ovarian, 14.2 µM. Moreover, the GI50 in the assay with SF-295 CNS is 15.9 µM; in the assay on SK-MEL-28 melanoma, 1.73 µM; with SK-OV-3 ovarian it was 17.9 µM; with SW-620 colon it was 1.51 µM. Moreover, the TGI is 3.65 µM in the assay on CCRF-CEM leukemia; 21.7 µM with DU-145 prostate; 3.91 µM in the assay with HCT-15 colon; 2.96 µM in the assay with LOX IMVI melanoma; 17.6 µM with MCF7 breast; 50.1 µM with NCI/ADR-RES ovarian. Moreover, the TGI came out at 30.7 µM with SF-295 CNS, 3.26 µM with SK-MEL-28 melanoma, 32 µM with SK-OV-3 ovarian and 3.25 µM with SW-620 colon.
On to `CN1CC[C@@H](NC(=O)Nc2ccc(C#N)cc2)C[C@@H]1c1nc2ccccc2[nH]1`, for which the GI50 in the assay on CCRF-CEM leukemia was 97.4 µM; in the assay with DU-145 prostate it was greater than 100 µM; in the assay on HCT-15 colon it was greater than 100 µM; with LOX IMVI melanoma, greater than 42.5 µM; in the assay on MCF7 breast it was 98.8 µM; in the assay on NCI/ADR-RES ovarian, greater than 49.8 µM. Besides, the GI50 in the assay on SF-295 CNS, in the assay on SK-MEL-28 melanoma, in the assay on SK-OV-3 ovarian and with SW-620 colon was greater than 100 µM in each case. The TGI was greater than 100 µM with CCRF-CEM leukemia; greater than 100 µM in the assay with DU-145 prostate; greater than 100 µM with HCT-15 colon; greater than 59.5 µM with LOX IMVI melanoma; greater than 100 µM in the assay with MCF7 breast; greater than 86.6 µM in the assay on NCI/ADR-RES ovarian. Moreover, the TGI in the assay with SF-295 CNS, in the assay with SK-MEL-28 melanoma, in the assay on SK-OV-3 ovarian and with SW-620 colon was greater than 100 µM in each case.
As to `C=C1C(=O)O[C@H]2[C@H]1CC/C(COC(=O)NCc1ccc(Cn3c(=O)sn(-c4ccc(OC)cc4)c3=O)cc1)=C\CC[C@@]1(C)O[C@@H]21`, the GI50 with CCRF-CEM leukemia was 0.561 µM; in the assay on DU-145 prostate, 1.81 µM; in the assay on HCT-15 colon, 1.68 µM; with LOX IMVI melanoma, 1.73 µM; in the assay on MCF7 breast, 1.77 µM; in the assay on NCI/ADR-RES ovarian, 12.3 µM. The GI50 is 15 µM in the assay with SF-295 CNS, 1.97 µM in the assay on SK-MEL-28 melanoma, 14.4 µM in the assay with SK-OV-3 ovarian and 1.77 µM in the assay with SW-620 colon. Further, the TGI was 3.05 µM with CCRF-CEM leukemia; 3.21 µM in the assay with DU-145 prostate; 3.36 µM in the assay on HCT-15 colon; 3.12 µM in the assay on LOX IMVI melanoma; 3.63 µM in the assay on MCF7 breast; 28.8 µM with NCI/ADR-RES ovarian. Further, the TGI in the assay on SF-295 CNS was found to be 28.9 µM; in the assay with SK-MEL-28 melanoma, 4.1 µM; with SK-OV-3 ovarian it was 27.4 µM; in the assay with SW-620 colon, 3.61 µM.
Take `Nc1n[nH]c2cc(F)c([C@@H]3Nc4ccc5[nH]ncc5c4[C@H]4C5CCC(C5)[C@@H]34)cc12` (stereo not given in full): the GI50 in the assay with CCRF-CEM leukemia was 0.176 µM; with DU-145 prostate, 0.205 µM; in the assay on HCT-15 colon, 0.159 µM; in the assay with LOX IMVI melanoma, 0.158 µM; in the assay with MCF7 breast, 0.115 µM; with NCI/ADR-RES ovarian it was 0.159 µM. The GI50 in the assay with SF-295 CNS is 0.12 µM; in the assay on SK-MEL-28 melanoma it was 1.37 µM; in the assay with SK-OV-3 ovarian, 0.359 µM; with SW-620 colon, 0.188 µM. Further, the TGI with CCRF-CEM leukemia is greater than 50 µM; in the assay on DU-145 prostate, 8.75 µM; with HCT-15 colon it was 9.04 µM; in the assay on LOX IMVI melanoma it was 6.47 µM; with MCF7 breast, 9.18 µM; with NCI/ADR-RES ovarian it was 0.746 µM. Moreover, the TGI in the assay on SF-295 CNS is 6.03 µM; with SK-MEL-28 melanoma, 21.9 µM; in the assay on SK-OV-3 ovarian it was greater than 32.1 µM; in the assay on SW-620 colon it was greater than 25 µM.
Turning to `O=C(O)c1ccc2c(c1C(=O)O)C(=O)OC2(c1ccc(O)cc1)c1ccc(O)cc1`, the TGI in the assay with CCRF-CEM leukemia, in the assay with DU-145 prostate, in the assay on HCT-15 colon, in the assay with LOX IMVI melanoma, with MCF7 breast and in the assay with NCI/ADR-RES ovarian was greater than 100 µM each time. Moreover, the TGI with SF-295 CNS, with SK-MEL-28 melanoma, with SK-OV-3 ovarian and in the assay on SW-620 colon was greater than 100 µM each time.
In the case of `N#Cc1c[nH]n2c(N=Nc3ccc(Cl)cc3)c(O)nc12`, the GI50 with CCRF-CEM leukemia was 31.1 µM; with DU-145 prostate, 42.6 µM; with HCT-15 colon, 22 µM; in the assay on LOX IMVI melanoma, 28.8 µM; in the assay with MCF7 breast it was 21 µM; with NCI/ADR-RES ovarian it was 25 µM. Besides, the GI50 in the assay with SF-295 CNS was 30.1 µM; in the assay with SK-MEL-28 melanoma, 44.4 µM; in the assay with SK-OV-3 ovarian it was 37 µM; with SW-620 colon it was 47.9 µM. Further, the TGI was greater than 100 µM with CCRF-CEM leukemia; greater than 100 µM in the assay with DU-145 prostate; 62.9 µM with HCT-15 colon; greater than 100 µM in the assay with LOX IMVI melanoma; greater than 100 µM in the assay on MCF7 breast; 83.8 µM in the assay on NCI/ADR-RES ovarian. Also, the TGI in the assay with SF-295 CNS, in the assay on SK-MEL-28 melanoma, in the assay on SK-OV-3 ovarian and with SW-620 colon was greater than 100 µM in each case.
Regarding `CC(C)c1cc2c(cc1S(=O)(=O)O)[C@@]1(C)CCC[C@@](C)(C(=O)O)C1CC2` (stereo not given in full), the TGI in the assay on CCRF-CEM leukemia, in the assay with DU-145 prostate, in the assay on HCT-15 colon, in the assay with LOX IMVI melanoma, in the assay with MCF7 breast and in the assay with NCI/ADR-RES ovarian was greater than 100 µM throughout. Besides, the TGI in the assay with SF-295 CNS, in the assay on SK-MEL-28 melanoma, with SK-OV-3 ovarian and with SW-620 colon was greater than 100 µM each time.

The values above are taken from PubChem BioAssay (NCI).
